Calls of active or inactive are those of the source.
What was measured:
[1] = biological target: T1, GABA-A receptor; alpha-1/beta-2/gamma-2 (Homo sapiens, UniProt P14867+P18507+P47870); experiment: Positive allosteric modulation of GABA-A alpha1beta2gamma2S receptor (unknown origin) expressed in Xenopus laevis oocytes assessed as increase in GABA-induced chloride current after 15 mins at -70 mV holding potential by two-microelectrode voltage clamp method; format: cell-based
T1 sequence (P14867 whole entry): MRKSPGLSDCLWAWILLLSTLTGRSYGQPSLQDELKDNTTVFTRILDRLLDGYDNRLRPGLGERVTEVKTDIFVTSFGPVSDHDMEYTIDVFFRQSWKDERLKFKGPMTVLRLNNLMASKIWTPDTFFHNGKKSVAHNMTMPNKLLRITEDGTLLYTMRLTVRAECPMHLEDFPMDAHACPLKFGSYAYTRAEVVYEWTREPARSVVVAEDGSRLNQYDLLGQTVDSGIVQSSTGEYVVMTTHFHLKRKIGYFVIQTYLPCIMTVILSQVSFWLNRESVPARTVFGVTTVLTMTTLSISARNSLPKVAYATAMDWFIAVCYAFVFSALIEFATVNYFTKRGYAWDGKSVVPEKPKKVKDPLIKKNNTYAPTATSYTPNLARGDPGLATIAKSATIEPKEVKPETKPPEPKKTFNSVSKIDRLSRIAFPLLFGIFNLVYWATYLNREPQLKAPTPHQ
T1 sequence (P47870 whole entry): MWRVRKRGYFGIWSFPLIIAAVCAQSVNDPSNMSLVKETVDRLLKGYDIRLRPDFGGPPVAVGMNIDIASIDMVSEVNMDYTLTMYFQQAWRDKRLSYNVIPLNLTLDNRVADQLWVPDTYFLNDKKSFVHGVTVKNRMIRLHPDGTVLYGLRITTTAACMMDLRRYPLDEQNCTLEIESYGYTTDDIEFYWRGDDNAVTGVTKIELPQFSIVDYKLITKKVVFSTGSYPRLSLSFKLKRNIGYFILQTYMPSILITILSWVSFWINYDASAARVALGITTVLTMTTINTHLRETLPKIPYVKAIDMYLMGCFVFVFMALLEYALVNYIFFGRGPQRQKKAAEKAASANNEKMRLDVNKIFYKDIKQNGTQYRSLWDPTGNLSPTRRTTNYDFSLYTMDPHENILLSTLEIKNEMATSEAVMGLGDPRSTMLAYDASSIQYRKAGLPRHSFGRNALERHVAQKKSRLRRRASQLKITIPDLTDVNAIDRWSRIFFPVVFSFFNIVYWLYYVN
T1 sequence (P18507 whole entry): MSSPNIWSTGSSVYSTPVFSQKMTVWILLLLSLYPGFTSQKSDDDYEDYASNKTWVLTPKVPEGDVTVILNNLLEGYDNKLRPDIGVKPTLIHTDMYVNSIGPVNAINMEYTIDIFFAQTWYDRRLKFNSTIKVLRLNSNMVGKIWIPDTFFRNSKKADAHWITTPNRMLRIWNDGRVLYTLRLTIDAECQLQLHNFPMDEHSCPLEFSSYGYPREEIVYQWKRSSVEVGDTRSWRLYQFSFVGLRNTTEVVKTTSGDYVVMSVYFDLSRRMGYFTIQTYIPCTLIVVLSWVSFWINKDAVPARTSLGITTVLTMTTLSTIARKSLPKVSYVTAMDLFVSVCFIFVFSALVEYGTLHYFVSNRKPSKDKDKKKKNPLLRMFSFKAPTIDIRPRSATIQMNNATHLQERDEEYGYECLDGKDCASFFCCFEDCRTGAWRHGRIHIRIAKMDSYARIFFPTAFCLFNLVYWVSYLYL

[2] = biological target: T2, GABA-A receptor; alpha-1/beta-3/gamma-2 (Homo sapiens, UniProt P14867+P18507+P28472); experiment: Positive allosteric modulation of GABA-A alpha1beta3gamma2S receptor (unknown origin) expressed in Xenopus laevis oocytes assessed as increase in GABA-induced chloride current after 15 mins at -70 mV holding potential by two-microelectrode voltage clamp method; format: cell-based
T2 sequence (P14867 whole entry): T1 sequence (P14867 whole entry)
T2 sequence (P18507 whole entry): T1 sequence (P18507 whole entry)
T2 sequence (P28472 whole entry): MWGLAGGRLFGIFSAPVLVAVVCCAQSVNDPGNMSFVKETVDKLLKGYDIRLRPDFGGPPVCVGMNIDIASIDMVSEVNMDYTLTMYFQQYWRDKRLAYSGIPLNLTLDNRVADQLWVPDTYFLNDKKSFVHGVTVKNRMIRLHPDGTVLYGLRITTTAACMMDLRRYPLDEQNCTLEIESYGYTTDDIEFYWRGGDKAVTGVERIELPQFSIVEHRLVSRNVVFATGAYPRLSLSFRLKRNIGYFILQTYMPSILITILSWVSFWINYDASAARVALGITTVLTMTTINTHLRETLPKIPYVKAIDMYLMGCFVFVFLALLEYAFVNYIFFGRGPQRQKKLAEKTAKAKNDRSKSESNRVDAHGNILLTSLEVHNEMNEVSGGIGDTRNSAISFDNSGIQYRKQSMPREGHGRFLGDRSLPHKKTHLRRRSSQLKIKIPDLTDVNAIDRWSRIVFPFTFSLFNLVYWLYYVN

[3] = test system: Mus musculus; experiment: Anticonvulsive activity in C57BL/6N mouse assessed as protection against 49 +/- 1.8 mg/kg pentylenetetrazole-induced seizures by measuring elevation in seizure threshold at 10 mg/kg, ip pretreated for 30 mins followed by pentylenetetrazole tail-vein infusion; format: functional, organism-based
[4] = biological target: GABA-A receptor; anion channel (Rattus norvegicus) (UniProt O09028+P15431+P18506+P18508+P19969+P20236+P23574+P23576+P28471+P28473+P30191+P62813+P63079+P63138+Q91ZM7+Q9ES14); experiment: Positive allosteric modulation of GABA-A receptor in Sprague-Dawley rat primary hippocampal neurons assessed as channel-mediated tonic current at 30 uM pretreated for 300 secs followed by BMI addition for 10 secs at -70 mV holding potential by patch-clamp method (reference value: -63 pA); format: protein-complex assay

C/C(=C(/C#N)C(N)=O)c1ccc(Cl)cc1Cl
EC50 [1]: 64 µM | EC50 [2]: 55 µM

CC1=C2[C@H](/C=C(\C)C(=O)O)CC[C@@H](C)[C@H]2CC1 [VALERENIC ACID]
Activity [3]: Active | Activity [4]: -115 pA | EC50 [2]: 19 µM

C/C(C#N)=C\c1ccc(Cl)cc1Cl
EC50 [2]: 91 µM

C/C(=C(\C#N)C(N)=O)c1ccc(Cl)cc1Cl
EC50 [1]: 40 µM | EC50 [2]: 44 µM

CC(=C(C#N)C(N)=O)c1ccc(Cl)cc1Cl (mixture of isomers)
EC50 [2]: 67 µM

C/C(C#N)=C\c1ccc(C)cc1Cl
EC50 [2]: 44 µM

Source: ChEMBL document CHEMBL4308853, “Design, Synthesis, and Pharmacological Evaluation of Novel β2/3 Subunit-Selective γ-Aminobutyric Acid Type A (GABAA) Receptor Modulators” (J Med Chem, 2018)
